Reference: patent publication US20250076286A1, “GENERATION OF NEURAL ORGANIZER ORGANOIDS AND MIDLINE ASSEMBLOIDS FROM HUMAN PLURIPOTENT STEM CELLS” (The Board of Trustees of the Leland Stanford Junior …, priority 2022, published 2025)

What was measured:
Assay type in all cases: cell-based, human
[1] = tested on: hFpO-hNtO midline assembloids; test: hFpO-induced ventralization of hNtO in midline assembloids (immunofluorescence staining)
Method: Cryoprotection and immunofluorescence staining. hFpO, hNtO and midline assembloids were fixed in 4% paraformaldehyde (PFA)/phosphate buffered saline (PBS) for 1-2 hours on a rocker at 4° C. They were then washed in PBS and transferred to 30% sucrose/PBS overnight until the organoids/assembloids sink in the solution. Subsequently, they were rinsed in optimal cutting temperature (OCT) compound (Tissue-Tek OCT Compound 4583, Sakura Finetek) and embedded. For immunofluorescence staining, 20 μm-thick sections were cut using a Leica Cryostat (Leica, CM1850). Cryosections were blocked in 0.3% Triton X-100 (Millipore Sigma, T9284-100ML), 1% BSA diluted in PBS for 1 h at room temperature. The sections were then incubated overnight at 4° C. with primary antibodies diluted in PBS containing 1% BSA, 0.1% Triton X-100. Samples were then rinsed 3× and incubated for 30 minutes in 1% BSA, 0.1% Triton X-100. Cryosections were then incubated with secondary antibodies in block 1 h. The following primary antibodies were used for staining: anti-FOXA2 (rabbit, Abcam), anti-NKX2.2 (mouse, DSHB, sc-517261), anti-NKX6.1 (mouse, DSHB), LMX1A (rabbit, HPA030088, Atlas antibodies), TFAP2A. Alexa Fluor dyes (Life Technologies) were used at 1:1000 dilution, and nuclei were visualized with Hoechst 33258 (Life Technologies, H3549). Cryosections were mounted for microscopy on glass slides using Aquamount (Polysciences, 18606), and imaged on a Zeiss M1 Axioscope or EVOS microscope. Images were processed in Fiji (NIH).
Generation of neural tube organoids or organoids (hNtO) and midline assembloids (hNtO-hFpO). To generate hNtO, organoids were generated using the Aggrewell method previously described. The 20% KOSR medium was changed every day and supplemented with dorsomorphin and SB-431542 for 5 Days. On day 6 in suspension, the organoids were transferred to 20% KOSR supplemented with EGF, FGF2, CHIR and retinoic acid. On day 7, hNtO were dissociated and seeded as previously described in ultra-low attachment 96 well plates. […]

[2] = tested on: hiPSC cell-derived floor plate organoids (hFpO); test: Quantification of FOXA2 positive floor plate cells by immunofluorescence microscopy; conditions: hFpO induced with 5 μM SAG day 1 to day 6 plus dual SMAD inhibitors, EGF, FGF2, RA; controls without SAG showed no induction
Method: For the generation of 3D floor plate organoids, hiPSC cells were incubated with Accutase® (Innovative Cell Technologies, AT104) at 37° C. for 7 min and dissociated into single cells. To obtain uniformly sized organoids, AggreWell-800 (STEMCELL Technologies, 34815) containing 300 microwells was used. Approximately 3×10^6 single cells were added per AggreWell-800 well in Essential 8 medium supplemented with the ROCK inhibitor Y27632 (10 mM, Selleckchem, S1049), centrifuged at 100 g for 3 min to capture the cells in the microwells, and incubated at 37° C. with 5% CO2. After 24 h, organoids consisting of approximately 10,000 cells were collected from each microwell by pipetting medium in the well up and down with a cut P1000 pipet tip and transferred into ultra-low attachment plastic dishes (Corning, 3262) in 20% knockout serum medium (KOSR) supplemented with two SMAD pathway inhibitors dorsomorphin (2.5 mM, Sigma-Aldrich, P5499) and SB-431542 (10 mM, R&D Systems, 1614) for the first 5 days.
For floor plate induction: SAG, FGF2, and retinoic acid was added to the medium starting on day 1 and CHIR was added to the media beginning on day 2 until day 7. The 20% KOSR medium was changed every day and supplemented with the respective small molecules and growth factors (FIG. 1). […]

[3] = tested on: dorsal interneuron axon extension in dhSpOs; test: Axon extension response of dhSpO dorsal interneurons to purified FP-secreted proteins; conditions: for sensitivity to repulsive axon guidance cue / chemorepulsion: ROBO3 KO neurites
Method: Differentiation of dorsal human spinal organoids (hSpO) and midline assembloids (dhSpO-hFpO-dhSpO) to study crossing of commissural projections. Aggregates of hiPSC cells were generated and collected as previously described in hFpO and hNtO protocols and transferred to poly-HEMA coated 10 cm dishes in Essential 6 medium (Thermo Fisher Scientific, A1516401) supplemented with two SMAD pathway inhibitors-dorsomorphin (2.5 mM, Sigma-Aldrich, P5499) and SB-431542 (10 mM, R&D Systems, 1614). For the first 5 d, Essential 6 medium was changed every day and supplemented with dorsomorphin and SB-431542. To generate hSpO, on day 6 in suspension the organoids were transferred to neural medium containing Neurobasal™-A Medium (Thermo Fisher Scientific, 10888022), B-27™ Supplement, minus vitamin A (Thermo Fisher Scientific, 12587010), GlutaMAX™ Supplement (1:100, Thermo Fisher Scientific, 35050079), Penicillin-Streptomycin (1:100, Thermo Fisher Scientific, 15070063), and supplemented with EGF, CHIR and RA. From day 19, to promote differentiation of the neural progenitors into neurons, the neural medium was supplemented with brain-derived neurotrophic factor (BDNF; 20 ng/ml, PeproTech, 450-02), IGF, AA, and 5′-cyclic monophosphate sodium salt (cAMP; 100 mM, Millipore Sigma, D0627). From this point on medium was changed every other day.
To validate the functionality of floor plate mechanisms that coordinate midline crossing, =isogenic KO hiPS cell lines targeting ROBO3 (an essential gene for midline crossing) with the CRISPR/Cas9 system were generated. Three sgRNAs targeting an early exon of a specific gene were designed and synthesized by Synthego to induce one deletion. Human iPSCs were dissociated with accutase and 0.5 million cells were mixed with 300 pmol sgRNAs and 40 pmol Cas9 protein (Synthego, SpCas9 2NLS Nuclease ([…])). Nucleofection was performed using the P3 Primary Cell 4D-NucleofectorTMX Kit L (Lonza, V4XP-3032), a 4D-nucleofector core unit and the X unit (Lonza) (program CA-137). […]

[4] = cyclopamine added the same day of fusion and in subsequent feeds, hFpO-hNtO assembloid

CC1=C2C[C@H]3[C@@H](CC=C4C[C@@H](O)CC[C@@]43C)[C@@H]2CC[C@]12O[C@@H]1C[C@H](C)CN[C@H]1[C@H]2C [cyclopamine]
FOXA2 expression in hFpO [1, 4]: abolished | NKX2.2 induction in hNtO [1, 4]: abolished | hFpO induced ventralization (NKX2.2, FOXA2, NKX6.1) ([1]; in the presence of cyclopamine, FIG. 5E-G): completely abolished

CNC1CCC(N(Cc2cccc(-c3ccncc3)c2)C(=O)c2sc3ccccc3c2Cl)CC1 (stereo not shown) [SAG]
percent of positive floor plate cells (FOXA2 marker) [2]: 90-99%

B1: SLIT-2: repulsive axon guidance cue, purified FP-secreted protein (protein, UniProt O94813 31-1529, looked up)
Slit homolog 2 protein: QCSCSGSTVDCHGLALRSVPRNIPRNTERLDLNGNNITRITKTDFAGLRHLRVLQLMENKISTIERGAFQDLKELERLRLNRNHLQLFPELLFLGTAKLYRLDLSENQIQAIPRKAFRGAVDIKNLQLDYNQISCIEDGAFRALRDLEVLTLNNNNITRLSVASFNHMPKLRTFRLHSNNLYCDCHLAWLSDWLRQRPRVGLYTQCMGPSHLRGHNVAEVQKREFVCSGHQSFMAPSCSVLHCPAACTCSNNIVDCRGKGLTEIPTNLPETITEIRLEQNTIKVIPPGAFSPYKKLRRIDLSNNQISELAPDAFQGLRSLNSLVLYGNKITELPKSLFEGLFSLQLLLLNANKINCLRVDAFQDLHNLNLLSLYDNKLQTIAKGTFSPLRAIQTMHLAQNPFICDCHLKWLADYLHTNPIETSGARCTSPRRLANKRIGQIKSKKFRCSAKEQYFIPGTEDYRSKLSGDCFADLACPEKCRCEGTTVDCSNQKLNKIPEHIPQYTAELRLNNNEFTVLEATGIFKKLPQLRKINFSNNKITDIEEGAFEGASGVNEILLTSNRLENVQHKMFKGLESLKTLMLRSNRITCVGNDSFIGLSSVRLLSLYDNQITTVAPGAFDTLHSLSTLNLLANPFNCNCYLAWLGEWLRKKRIVTGNPRCQKPYFLKEIPIQDVAIQDFTCDDGNDDNSCSPLSRCPTECTCLDTVVRCSNKGLKVLPKGIPRDVTELYLDGNQFTLVPKELSNYKHLTLIDLSNNRISTLSNQSFSNMTQLLTLILSYNRLRCIPPRTFDGLKSLRLLSLHGNDISVVPEGAFNDLSALSHLAIGANPLYCDCNMQWLSDWVKSEYKEPGIARCAGPGEMADKLLLTTPSKKFTCQGPVDVNILAKCNPCLSNPCKNDGTCNSDPVDFYRCTCPYGFKGQDCDVPIHACISNPCKHGGTCHLKEGEEDGFWCICADGFEGENCEVNVDDCEDNDCENNSTCVDGINNYTCLCPPEYTGELCEEKLDFCAQDLNPCQHDSKCILTPKGFKCDCTPGYVGEHCDIDFDDCQDNKCKNGAHCTDAVNGYTCICPEGYSGLFCEFSPPMVLPRTSPCDNFDCQNGAQCIVRINEPICQCLPGYQGEKCEKLVSVNFINKESYLQIPSAKVRPQTNITLQIATDEDSGILLYKGDKDHIAVELYRGRVRASYDTGSHPASAIYSVETINDGNFHIVELLALDQSLSLSVDGGNPKIITNLSKQSTLNFDSPLYVGGMPGKSNVASLRQAPGQNGTSFHGCIRNLYINSELQDFQKVPMQTGILPGCEPCHKKVCAHGTCQPSSQAGFTCECQEGWMGPLCDQRTNDPCLGNKCVHGTCLPINAFSYSCKCLEGHGGVLCDEEEDLFNPCQAIKCKHGKCRLSGLGQPYCECSSGYTGDSCDREISCRGERIRDYYQKQQGYAACQTTKKVSRLECRGGCAGGQCCGPLRSKRRKYSFECTDGSSFVDEVEKVVKCGCTRCVS
sensitivity to repulsive axon guidance cue / chemorepulsion [3]: increased sensitivity and chemorepulsion | sensitivity to repulsive axon guidance cue / chemorepulsion ([3]; listed as Slit-2): Increased sensitivity | sensitivity to repulsive axon guidance cue ([3]; wildtype dorsal interneurons): largely insensitive
